Results taken from patent US8410302B2, “Methoxyimino compounds and fungicide composition comprising same” (Kyung Nong Corporation, priority 2007, dated 2013).
Where two headings read alike, the source gives them in different places.

Legend:
Phytophthora infestans = experiment: whole plant or invertebrate; type: in vivo; settings: for TLB control value (C.V.): tomato late blight; for pest or weed control at 2 ppm / pest or weed control at 10 ppm / pest or weed control at 50 ppm / pest or weed control at 100 ppm: Phytophthora infestans, in Solanum lycopersicum, read-out: TLB control value (C.V.)
Erysiphae graminis = experiment: Fungicidal activity against barley powdery mildew (BPM) disease, control value; type: in vivo; settings: for pest or weed control at 2 ppm / pest or weed control at 10 ppm / pest or weed control at 50 ppm / pest or weed control at 100 ppm: 168 h, read-out: BPM control value (C.V.)
[1] = tested on: Pyricularia oryzae Carvara KA301; experiment: whole plant or invertebrate; type: in vivo; settings: for RCB control value (C.V.): rice blast; for pest or weed control at 2 ppm / pest or weed control at 10 ppm / pest or weed control at 50 ppm / pest or weed control at 100 ppm: Pyricularia oryzae, read-out: RCB control value (C.V.)
Botrytis cinerae = experiment: Fungicidal activity against cucumber gray mold rot (CGM) disease, control value; type: in vivo
Puccinia recondita = experiment: Fungicidal activity against wheat leaf rust (WLR) disease, control value; type: in vivo; settings: for pest or weed control at 10 ppm / pest or weed control at 50 ppm / pest or weed control at 100 ppm / pest or weed control at 2 ppm: read-out: WLR control value (C.V.)
Rhizoctonia solani AG-1 = experiment: Fungicidal activity against rice sheath blight (RSB) disease, control value; settings: for RSB control value (C.V.): rice sheath blight; for pest or weed control at 2 ppm / pest or weed control at 10 ppm / pest or weed control at 50 ppm / pest or weed control at 100 ppm: Rhizoctonia solani, AG1, in Oryza sativa, read-out: RSB control value (C.V.)
[2] = Botrytis, 100 ppm, read-out: CGM control value (C.V.)

CNC(=O)/C(=N/OC)c1ccccc1COc1c(OC)ccc(C=C(Cl)Cl)c1Br [Example 52]
100%: TLB control value (C.V.) (Phytophthora infestans; 10 ppm) | TLB control value (C.V.) (Phytophthora infestans; 50 ppm) | TLB control value (C.V.) (Phytophthora infestans; 100 ppm) | BPM control value (C.V.) (Erysiphae graminis; 10 ppm, barley powdery mildew) | BPM control value (C.V.) (Erysiphae graminis; 50 ppm, barley powdery mildew) | BPM control value (C.V.) (Erysiphae graminis; 100 ppm, barley powdery mildew) | RCB control value (C.V.) ([1]; 10 ppm) | RCB control value (C.V.) ([1]; 50 ppm) | RCB control value (C.V.) ([1]; 100 ppm) | WLR control value (C.V.) (Puccinia recondita; 2 ppm, wheat leaf rust) | WLR control value (C.V.) (Puccinia recondita; 10 ppm, wheat leaf rust) | WLR control value (C.V.) (Puccinia recondita; 50 ppm, wheat leaf rust) | WLR control value (C.V.) (Puccinia recondita; 100 ppm, wheat leaf rust) | RSB control value (C.V.) (Rhizoctonia solani AG-1; 10 ppm) | RSB control value (C.V.) (Rhizoctonia solani AG-1; 50 ppm) | RSB control value (C.V.) (Rhizoctonia solani AG-1; 100 ppm)
95%: TLB control value (C.V.) (Phytophthora infestans; 2 ppm) | RSB control value (C.V.) (Rhizoctonia solani AG-1; 2 ppm)
70%: RCB control value (C.V.) ([1]; 2 ppm)
45%: CGM control value (C.V.) (Botrytis cinerae; 100 ppm, cucumber gray mold rot)
99%: BPM control value (C.V.) (Erysiphae graminis; 2 ppm, barley powdery mildew)

CO/N=C(/C(=O)OC)c1ccccc1COc1ccc(C=C(Cl)Cl)cc1Br [Example 53, methyl-(E)-2-(2-((2-bromo-4-(2,2-dichlorovinyl)phenoxy)methyl)phenyl)-2-methoxyiminoacetate]
99%: pest or weed control at 10 ppm (Phytophthora infestans)
98%: pest or weed control at 10 ppm (Rhizoctonia solani AG-1)
50%: pest or weed control at 100 ppm (Botrytis cinerae; Botrytis, 100 ppm, cucumber gray mold rot, read-out: CGM control value (C.V.))
97%: pest or weed control at 10 ppm [1]
90%: pest or weed control at 2 ppm (Phytophthora infestans)
85%: pest or weed control at 2 ppm (Rhizoctonia solani AG-1)
70%: pest or weed control at 2 ppm [1]
100%: pest or weed control at 50 ppm (Phytophthora infestans) | pest or weed control at 100 ppm (Phytophthora infestans) | pest or weed control at 2 ppm (Erysiphae graminis; 2 ppm) | pest or weed control at 10 ppm (Erysiphae graminis; Hordeum vulgare, 10 ppm, barley powdery mildew) | pest or weed control at 50 ppm (Erysiphae graminis; Hordeum vulgare, 50 ppm, barley powdery mildew) | pest or weed control at 100 ppm (Erysiphae graminis; Hordeum vulgare, 100 ppm, barley powdery mildew) | pest or weed control at 50 ppm [1] | pest or weed control at 100 ppm [1] | pest or weed control at 10 ppm (Puccinia recondita; 10 ppm, wheat leaf rust) | pest or weed control at 50 ppm (Puccinia recondita; 50 ppm, wheat leaf rust) | pest or weed control at 100 ppm (Puccinia recondita; 100 ppm, wheat leaf rust) | pest or weed control at 2 ppm (Puccinia recondita; Puccinia recondita, 2 ppm) | pest or weed control at 50 ppm (Rhizoctonia solani AG-1) | pest or weed control at 100 ppm (Rhizoctonia solani AG-1)

CNC(=O)/C(=N/OC)c1ccccc1COc1ccc(C=C(Cl)Cl)cc1Br [Example 54, (E)-2-(2-((2-bromo-4-(2,2-dichlorovinyl)phenoxy)methyl)phenyl)-2-methoxyimino-N-methylacetamide]
98%: pest or weed control at 10 ppm (Rhizoctonia solani AG-1)
93%: pest or weed control at 2 ppm (Phytophthora infestans)
65%: pest or weed control at 100 ppm (Botrytis cinerae; [2])
90%: pest or weed control at 10 ppm [1] | pest or weed control at 2 ppm (Rhizoctonia solani AG-1)
30%: pest or weed control at 2 ppm [1]
95%: pest or weed control at 10 ppm (Phytophthora infestans)
100%: pest or weed control at 50 ppm (Phytophthora infestans) | pest or weed control at 100 ppm (Phytophthora infestans) | pest or weed control at 2 ppm (Erysiphae graminis; 2 ppm) | pest or weed control at 10 ppm (Erysiphae graminis; 10 ppm) | pest or weed control at 50 ppm (Erysiphae graminis; 50 ppm) | pest or weed control at 100 ppm (Erysiphae graminis; 100 ppm) | pest or weed control at 50 ppm [1] | pest or weed control at 100 ppm [1] | pest or weed control at 2 ppm (Puccinia recondita; Puccinia recondita, 2 ppm) | pest or weed control at 10 ppm (Puccinia recondita; Puccinia recondita, 10 ppm) | pest or weed control at 50 ppm (Puccinia recondita; Puccinia recondita, 50 ppm) | pest or weed control at 100 ppm (Puccinia recondita; Puccinia recondita, 100 ppm) | pest or weed control at 50 ppm (Rhizoctonia solani AG-1) | pest or weed control at 100 ppm (Rhizoctonia solani AG-1)

CO/N=C(/C(=O)OC)c1ccccc1COc1ccc(F)cc1C=C(Cl)Cl [Example 55, methyl-(E)-2-(2-((2-(2,2-dichlorovinyl)-4-fluorophenoxy)methyl)phenyl)-2-methoxyiminoacetate]
90%: pest or weed control at 2 ppm (Rhizoctonia solani AG-1)
99%: pest or weed control at 2 ppm (Phytophthora infestans)
75%: pest or weed control at 100 ppm (Botrytis cinerae; [2])
100%: pest or weed control at 10 ppm (Phytophthora infestans) | pest or weed control at 50 ppm (Phytophthora infestans) | pest or weed control at 100 ppm (Phytophthora infestans) | pest or weed control at 2 ppm (Erysiphae graminis; 2 ppm) | pest or weed control at 10 ppm (Erysiphae graminis; 10 ppm) | pest or weed control at 50 ppm (Erysiphae graminis; 50 ppm) | pest or weed control at 100 ppm (Erysiphae graminis; 100 ppm) | pest or weed control at 2 ppm [1] | pest or weed control at 10 ppm [1] | pest or weed control at 50 ppm [1] | pest or weed control at 100 ppm [1] | pest or weed control at 2 ppm (Puccinia recondita; Puccinia recondita, 2 ppm) | pest or weed control at 10 ppm (Puccinia recondita; Puccinia recondita, 10 ppm) | pest or weed control at 50 ppm (Puccinia recondita; Puccinia recondita, 50 ppm) | pest or weed control at 100 ppm (Puccinia recondita; Puccinia recondita, 100 ppm) | pest or weed control at 10 ppm (Rhizoctonia solani AG-1) | pest or weed control at 50 ppm (Rhizoctonia solani AG-1) | pest or weed control at 100 ppm (Rhizoctonia solani AG-1)
25%: pest or weed control at 50 ppm (Botrytis cinerae; Botrytis, 50 ppm, read-out: CGM control value (C.V.))
